Measurements: publication PMC4809600, “The Influence of Chronic Wound Extracts on Inflammatory Cytokine and Histatin Stability” (PLoS ONE, 2016)
Read-outs that look alike come from different tables or passages of the source. Where no end group is shown, it is not given here.

Assays:
[1] = Dose response of Hst1 and PIC in the presence of CWE; type: in vitro ADME, human; details: CWE 1 mg/ml, 37°C, CZE, 0 h = 100%
Method: For the dose response of PIC and Hst1, three different concentrations of Hst1 were prepared (0.5 mg/ml, 1 mg/ml and 2 mg/ml) and two different concentrations of PIC were used. The final PIC concentration in the CWE (1 mg/ml) sample was 1:140 v/v (same as above) or 1:280 v/v (2x diluted). Mixtures were incubated at 37°C and samples were taken at 0, 24 and 96 h.
(§1) The samples were analyzed with a BioFocus 2000 capillary zone electrophoresis system (Bio-Rad Laboratories, Hercules, CA, USA) equipped with an uncoated fused-silica capillary of internal diameter 50 μm and a length of 24 cm. Samples were loaded by pressure injection (5 psi/sec). Separation was performed at 10 kV (cathode at the detector side) at 20°C using 0.1 M phosphate buffer (pH 2.5) as electrolyte and monitored continuously at 200 nm. Peaks were quantified with the BioFocus Integrator software. In order to quantify the percentage of intact peptides remaining after incubation with CWE, the ratios of histatins, rhIL-6 or rhCXCL8 to internal standard was set at 100% at 0h, and the ratios at the other incubation time points were related to this.

[2] = Stability in CWE with protease inhibitor cocktail (PIC), capillary zone electrophoresis; type: in vitro ADME, human; details: 1 mg/ml in PBS mixed 1:1 with CWE (1 mg/ml protein, pool of 5 donors) in PBS containing PIC (final 1:140 v/v), 37°C, CZE, ratio to imidazole, 0 h = 100%
Text: Debridement tissue was obtained from chronic ulcers of 15 patients with therapy resistant (arterio-venous) leg ulcers, according to procedures described earlier. In brief, moist, easily removable debridement material, essentially blood free, was collected from the ulcer surface and divided equally into two different solutions: (i) PBS (B. Braun, Melsungen, Germany), (ii) PBS with protease inhibitor cocktail (PIC) (1:100; v/v) (Sigma-Aldrich, Steinheim, Germany). The mixtures were gently shaken for 1 h at 4°C to elute proteins and centrifuged; the supernatants were stored at -80°C. Total protein content of the supernatant was measured using the BioRad Protein Assay (BioRad Laboratories, Hercules, California, USA) essentially as described by the supplier. Samples were diluted to 1 mg/ml protein and extracts of five different donors were pooled; three different pools of five donors were used in all experiments. The samples are referred to as chronic wound extracts (CWE).
To determine the stability of the different peptides in CWE, histatins and cytokines were dissolved in PBS at 1 mg/ml. Histatins and cytokines were incubated in a 1:1 ratio with (i) PBS, (ii) CWE in PBS, or (iii) CWE in PBS containing PIC, in a total volume of 25 μl. Imidazole (Sigma-Aldrich) was added as an internal standard, with a final concentration of 100 μg/ml. The mixtures were incubated at 37°C, and samples were taken at 0, 24, 48, 72 and 96 h. For histatins containing mixtures, additional samples were taken after 2, 4, 8 and 16 h of incubation.
as §1

DSHEKRHHGYRRKFHEKHHSHREFPFYGDYGSNYLYDN [Hst1]
Intact Hst1, CWE + PIC 1:140 24h ([1]; Hst1 0.5 mg/ml, PIC:CWE 1:140 v/v, 24 h, experiment 1 of 3): 73.4639%
Intact Hst1, CWE + PIC 1:140 24h ([1]; Hst1 0.5 mg/ml, PIC:CWE 1:140 v/v, 24 h, experiment 2 of 3): 69.7277%
Intact Hst1, CWE + PIC 1:140 24h ([1]; Hst1 0.5 mg/ml, PIC:CWE 1:140 v/v, 24 h, experiment 3 of 3): 63.6084%
Intact Hst1, CWE + PIC 1:140 96h ([1]; Hst1 0.5 mg/ml, PIC:CWE 1:140 v/v, experiment 1 of 3): 54.3382%
Intact Hst1, CWE + PIC 1:140 96h ([1]; Hst1 0.5 mg/ml, PIC:CWE 1:140 v/v, experiment 2 of 3): 46.1353%
Intact Hst1, CWE + PIC 1:280 24h ([1]; Hst1 0.5 mg/ml, PIC:CWE 1:280 v/v, 24 h, experiment 1 of 3): 49.1645%
Intact Hst1, CWE + PIC 1:280 24h ([1]; Hst1 0.5 mg/ml, PIC:CWE 1:280 v/v, 24 h, experiment 2 of 3): 30.5445%
Intact Hst1, CWE + PIC 1:280 96h ([1]; Hst1 0.5 mg/ml, PIC:CWE 1:280 v/v, experiment 1 of 3): 24.1883%
Intact Hst1, CWE + PIC 1:280 96h ([1]; Hst1 0.5 mg/ml, PIC:CWE 1:280 v/v, experiment 2 of 3): 18.189%
Intact Hst1, CWE + PIC 1:140 24h ([1]; Hst1 1 mg/ml, PIC:CWE 1:140 v/v, 24 h, experiment 3 of 3): 58.7589%
Intact Hst1, CWE + PIC 1:140 96h ([1]; Hst1 1 mg/ml, PIC:CWE 1:140 v/v, experiment 3 of 3): 38.9986%
Intact Hst1, CWE + PIC 1:280 24h ([1]; Hst1 1 mg/ml, PIC:CWE 1:280 v/v, 24 h, experiment 3 of 3): 38.2658%
Intact Hst1, CWE + PIC 1:280 96h ([1]; Hst1 1 mg/ml, PIC:CWE 1:280 v/v, experiment 3 of 3): 25.9997%
Intact Hst1, CWE + PIC 1:140 24h ([1]; Hst1 2 mg/ml, PIC:CWE 1:140 v/v, 24 h, experiment 1 of 3): 77.6287%
Intact Hst1, CWE + PIC 1:140 24h ([1]; Hst1 2 mg/ml, PIC:CWE 1:140 v/v, 24 h, experiment 2 of 3): 76.5019%
Intact Hst1, CWE + PIC 1:140 24h ([1]; Hst1 2 mg/ml, PIC:CWE 1:140 v/v, 24 h, experiment 3 of 3): 68.9738%
Intact Hst1, CWE + PIC 1:140 96h ([1]; Hst1 2 mg/ml, PIC:CWE 1:140 v/v, experiment 1 of 3): 61.2993%
Intact Hst1, CWE + PIC 1:140 96h ([1]; Hst1 2 mg/ml, PIC:CWE 1:140 v/v, experiment 2 of 3): 47.6383%
Intact Hst1, CWE + PIC 1:140 96h ([1]; Hst1 2 mg/ml, PIC:CWE 1:140 v/v, experiment 3 of 3): 45.7764%
Intact Hst1, CWE + PIC 1:280 24h ([1]; Hst1 2 mg/ml, PIC:CWE 1:280 v/v, 24 h, experiment 1 of 3): 61.8953%
Intact Hst1, CWE + PIC 1:280 24h ([1]; Hst1 2 mg/ml, PIC:CWE 1:280 v/v, 24 h, experiment 2 of 3): 55.6946%
Intact Hst1, CWE + PIC 1:280 24h ([1]; Hst1 2 mg/ml, PIC:CWE 1:280 v/v, 24 h, experiment 3 of 3): 47.0948%
Intact Hst1, CWE + PIC 1:280 96h ([1]; Hst1 2 mg/ml, PIC:CWE 1:280 v/v, experiment 1 of 3): 42.3498%
Intact Hst1, CWE + PIC 1:280 96h ([1]; Hst1 2 mg/ml, PIC:CWE 1:280 v/v, experiment 2 of 3): 34.4262%
Intact Hst1, CWE + PIC 1:280 96h ([1]; Hst1 2 mg/ml, PIC:CWE 1:280 v/v, experiment 3 of 3): 43.3131%
remaining at 96 h, 0.5 mg/ml ([1]; human, chronic wound extracts (CWE), with protease inhibitor cocktail (PIC), PIC:CWE 1:140 v/v, Hst1 0.5 mg/ml, PIC:CWE 1:140 v/v, experiment 3 of 3, read-out: Intact Hst1, CWE + PIC 1:140 96h): 37.5%
remaining at 24 h, 1 mg/ml ([1]; human, chronic wound extracts (CWE), with protease inhibitor cocktail (PIC), PIC:CWE 1:140 v/v, Hst1 1 mg/ml, PIC:CWE 1:140 v/v, 24 h, experiment 1 of 3, read-out: Intact Hst1, CWE + PIC 1:140 24h): 76.2%
remaining at 24 h, 1 mg/ml ([1]; human, chronic wound extracts (CWE), with protease inhibitor cocktail (PIC), PIC:CWE 1:140 v/v, Hst1 1 mg/ml, PIC:CWE 1:140 v/v, 24 h, experiment 2 of 3, read-out: Intact Hst1, CWE + PIC 1:140 24h): 67%
remaining at 96 h, 1 mg/ml ([1]; human, chronic wound extracts (CWE), with protease inhibitor cocktail (PIC), PIC:CWE 1:140 v/v, Hst1 1 mg/ml, PIC:CWE 1:140 v/v, experiment 1 of 3, read-out: Intact Hst1, CWE + PIC 1:140 96h): 53.2%
remaining at 96 h, 1 mg/ml ([1]; human, chronic wound extracts (CWE), with protease inhibitor cocktail (PIC), PIC:CWE 1:140 v/v, Hst1 1 mg/ml, PIC:CWE 1:140 v/v, experiment 2 of 3, read-out: Intact Hst1, CWE + PIC 1:140 96h): 43.5%
remaining at 24 h, 0.5 mg/ml ([1]; human, chronic wound extracts (CWE), with protease inhibitor cocktail (PIC), PIC:CWE 1:280 v/v, Hst1 0.5 mg/ml, PIC:CWE 1:280 v/v, 24 h, experiment 3 of 3, read-out: Intact Hst1, CWE + PIC 1:280 24h): 34.4%
remaining at 96 h, 0.5 mg/ml ([1]; human, chronic wound extracts (CWE), with protease inhibitor cocktail (PIC), PIC:CWE 1:280 v/v, Hst1 0.5 mg/ml, PIC:CWE 1:280 v/v, experiment 3 of 3, read-out: Intact Hst1, CWE + PIC 1:280 96h): 20.3%
remaining at 24 h, 1 mg/ml ([1]; human, chronic wound extracts (CWE), with protease inhibitor cocktail (PIC), PIC:CWE 1:280 v/v, Hst1 1 mg/ml, PIC:CWE 1:280 v/v, 24 h, experiment 1 of 3, read-out: Intact Hst1, CWE + PIC 1:280 24h): 60.2%
remaining at 24 h, 1 mg/ml ([1]; human, chronic wound extracts (CWE), with protease inhibitor cocktail (PIC), PIC:CWE 1:280 v/v, Hst1 1 mg/ml, PIC:CWE 1:280 v/v, 24 h, experiment 2 of 3, read-out: Intact Hst1, CWE + PIC 1:280 24h): 51.5%
remaining at 96 h, 1 mg/ml ([1]; human, chronic wound extracts (CWE), with protease inhibitor cocktail (PIC), PIC:CWE 1:280 v/v, Hst1 1 mg/ml, PIC:CWE 1:280 v/v, experiment 1 of 3, read-out: Intact Hst1, CWE + PIC 1:280 96h): 37%
remaining at 96 h, 1 mg/ml ([1]; human, chronic wound extracts (CWE), with protease inhibitor cocktail (PIC), PIC:CWE 1:280 v/v, Hst1 1 mg/ml, PIC:CWE 1:280 v/v, experiment 2 of 3, read-out: Intact Hst1, CWE + PIC 1:280 96h): 41.5%
Percentage intact, CWE + PIC 2h ([2]; experiment 1 of 3): 91.8564%
Percentage intact, CWE + PIC 2h ([2]; experiment 2 of 3): 90.6434%
Percentage intact, CWE + PIC 2h ([2]; experiment 3 of 3): 99.1023%
Percentage intact, CWE + PIC 4h ([2]; experiment 1 of 3): 81.1086%
Percentage intact, CWE + PIC 4h ([2]; experiment 2 of 3): 81.649%
Percentage intact, CWE + PIC 4h ([2]; experiment 3 of 3): 84.0062%
Percentage intact, CWE + PIC 8h ([2]; experiment 1 of 3): 76.5843%
Percentage intact, CWE + PIC 8h ([2]; experiment 2 of 3): 75.4466%
